Experimental data published in patent publication US5256528A, “Magenta image-dye couplers of improved hue” (Eastman Kodak Company, priority 1992, dated 1993).
Values belong to the compound of their own block, whether it stands above or below them.

Experiments:
[1] = Absorption spectra of dye-containing processed films (λmax), C-41 process; assay type: physicochemical
Description: (§1) Dispersions of the comparative couplers B1-B3 and B8 and of the couplers of this invention M1-M3 were prepared by dissolving the coupler in the coupler solvent S1 plus the auxiliary solvent 2-(2-butoxyethoxy)ethyl acetate and then dispersing this oil phase in an aqueous solution of gelatin and surfactant using an ultrasonic probe. The dispersions were chilled and washed for 6 hr at 4° C. to remove the auxiliary solvent. The dispersions contained approximately 8.8% coupler, 4.4% S1 and 6% gelatin by weight.
(§2) The dispersions were coated at 1.04 mmole/sq m together with a silver bromoiodide emulsion on a transparent acetate support in the format shown below. Hardened film strips were exposed through a 0-4 neutral density stepwedge and daylight V and WRATTEN 9 filters and subjected to a standard C-41 process at 37.8° C. The process consists of 2.5 min in color developer, 4 min in a ferric EDTA/PDTA bleach solution, 2 min wash, 4 min fix and 2 min final wash. Photographic gamma values were obtained from the slopes of plots of status M green density vs. exposure for processed samples. Absorption spectra of the dye-containing processed films were measured at a density near 1.0 on a spectrophotometer and the wavelengths of maximum absorption (λ max values) were recorded.
(§3) BVSM* Hardener 0.06 g/sq m
(§4) Coupler Solvent S1 1/2 coupler laydown
(§5) Dispersions of couplers B3, M1 and M5 with S1 (1:0.5) were prepared and coated as in Example 2. Film strips of these coatings were exposed, processed and analyzed as in Example 2. λmax values and gamma values associated with these film compositions are listed in Table III. This series further illustrates the use of electron-withdrawing substituents to obtain magenta dyes of the proper hue.
(§6) Dispersions of the comparative couplers B4, B5 and B8 and the couplers of this invention M6-M11 were prepared and coated as in Example 2. The coupler solvent S1 was again used at a 1:0.5 coupler:S1 weight ratio. Film strips of the hardened coatings were exposed, processed and analyzed as in Example 2. Couplers B4 and M6-M8 have a strongly electron-withdrawing alkoxycarbonyl substituent in the R2 position and couplers B5 and M9-M11 have a strongly electron-withdrawing alkylsulfonyl group at R2. […] The couplers of this invention, M6-M11, which have strong electron-withdrawing groups in each ring, yield dyes having the desired bathochromic hues, as shown by the λmax values. The gamma values obtained with the couplers of this invention are suitably high to be useful in photographic materials, as indicated by comparison to the gamma obtained from the commercial coupler B8.
(§7) Dispersions of the comparison couplers B6 and B7, and of the couplers of this invention M12-M17, were prepared using the coupler solvent Sl as in Example 2. These were coated as in Example 2, and hardened film strips were exposed, processed and analyzed as in Example 2. The results obtained are summarized in Table V. In this example all of the couplers have sulfamoyl or alkylsulfonyl substituents in the R1 position and the R2 substituent on the 3-anilino ring is varied. Comparative couplers B6 and B7 have chloro substituents at R2, whereas M12-M17 of this invention have strong electron withdrawing R2 groups. […] The gamma values of the couplers of this invention are similar to those of the comparative couplers.

[2] = Photographic gamma (slope of status M green density vs. exposure), C-41 process
Description: as §1, §2, §3, §4, §5, §6, §7

[3] = Continued coupling in bleach, delta Dmin process B - process A; details: Table VI, no aniline, no DIR coupler
Description: (§8) Dispersions of the coupler B3 were prepared with coupler solvents S1 and C2, both at a 1:1 B3:coupler solvent weight ratio. Dispersions of coupler M1 were prepared with C2 at 1:1 and with C2 plus aniline A1 at a 1:0.8:0.2 M1:C2:A1 weight ratio. These dispersions were prepared by dissolving the coupler in a mixture of coupler solvent, aniline A1 (optional) and cyclohexanone. The coupler:cyclohexanone weight ratio was 1:3. This mixture was then added to an aqueous solution of gelatin and ALKANOL XC surfactant. The two-phase mixture was then passed through a colloid mill to disperse the coupler-containing oil phase in the aqueous phase in the form of small droplets. The dispersion was then chilled, noodled and washed to remove the auxiliary cyclohexanone solvent. The resulting dispersions contained approximately 2% by weight of coupler and 6% by weight of gelatin.
(§9) The dispersions were then coated on a transparent support together with a silver bromoiodide emulsion in the format shown below. Coatings were then exposed through a stepwedge and subjected to variants of the KODAK FLEXICOLOR (C-41) process described below. One set of film samples was processed with an acetic acid stop bath between the development and bleach steps (process A). A second set of films was processed without a stop bath and with the bleach pH adjusted to 6.0 instead of the normal 5.25 (process B). This is intended to simulate behavior in a "seasoned" bleach whose pH increases due to carry-over of base from the developer solution. The difference between Dmin values (densities obtained in unexposed portions of the films) between process A and process B are due to continued coupling between coupler and developer carried over into the bleach. Both the lack of a stop bath and the high bleach pH in process B aggravate continued coupling. It is desirable to minimize Dmin density and Dmin variability due to continued coupling. Since conditions similar to process B are encountered in simplified trade processing, it is desirable to minimize continued coupling, as measured by the delta Dmin of process B - process A. These delta Dmin values are listed in Table VI along with λmax values and gamma values (obtained from plots of status M green density versus exposure).
(§10) 2.6 g/sq m Gelatin + 1.75 weight % BVSME* Hardener
(§11) Coupler Solvent + or - A1 @ equal weight to coupler
(§12) 1.08 g/sq m Silver Emulsion
(§13) //////Cellulose Acetate Butyrate Support//////
or Standard C-41 Bleach II
2B Bleach II Adjusted to pH = 6.0
(§14) Also included in this comparison was a 1:1 dispersion of M1 plus C2 to which was added the DIR coupler D1 (shown above) at a M1:D1 weight ratio of 1:0.045.

[4] = Photographic gamma with coupler solvents and addenda (KODAK FLEXICOLOR C-41 variants); details: Table VI, no aniline, no DIR coupler
Description: as §8
as §9, with “Both the lack of a stop bath and the high bleach pH in process B aggravate continued coupling. It is desirable to minimize Dmin density and Dmin variability due to continued coupling.” left out, “exposure). […]” for “exposure).”

[5] = λmax with coupler solvents and addenda (KODAK FLEXICOLOR C-41 variants); assay type: physicochemical; details: Table VI, no aniline, no DIR coupler
Description: as §8, §9, §10, §11, §12, §13, §14

[6] = Table I, Example 2, coupler:S1 1:0.5
[7] = Table III, Example 4, coupler:S1 1:0.5
[8] = Table IV, Example 5, coupler:S1 1:0.5
[9] = Table V, Example 6, coupler solvent S1

λmax(nm) (+-0.5) [1, 6]: 539.5 nm
Structure (SMILES): CCCCCCCCCCCCNS(=O)(=O)c1ccc(NC2=NN(c3c(Cl)cc(OC)cc3Cl)C(=O)C2Sc2cc(C(C)(C)CC(C)(C)C)ccc2OCCCC)c(Cl)c1 (stereo not shown) [Coupler B1, reference compound]
Gamma [2, 6]: 4.8

λmax(nm) (+-0.5) [1, 6]: 542.0 nm
Structure (SMILES): CCCCCCCCCCCCNS(=O)(=O)c1ccc(NC2=NN(c3c(Cl)cccc3Cl)C(=O)C2Sc2cc(C(C)(C)CC(C)(C)C)ccc2OCCCC)c(Cl)c1 (stereo not shown) [Coupler B2, reference compound]
Gamma [2, 6]: 5.3

λmax(nm) (+-0.5) [1, 6]: 546.0 nm
λmax(nm) (+-0.5) [1, 7]: 546.5 nm
λmax(nm) ([5]; C2(1.0)): 544 nm
λmax(nm) ([5]; S1(1.0)): 548 nm
Structure (SMILES): CCCCCCCCCCCCNS(=O)(=O)c1ccc(NC2=NN(c3c(Cl)cc(Cl)cc3Cl)C(=O)C2Sc2cc(C(C)(C)CC(C)(C)C)ccc2OCCCC)c(Cl)c1 (stereo not shown) [Coupler B3, reference compound]
Gamma [2, 6]: 4.7
Gamma [2, 7]: 4.5
Delta Dmin Process B-A ([3]; C2(1.0)): 0.071
Delta Dmin Process B-A ([3]; S1(1.0)): 0.191
Gamma ([4]; C2(1.0)): 1.78
Gamma ([4]; S1(1.0)): 2.10

Structure (SMILES): CCCCCCCCCCCCOC(=O)c1ccc(NC2=NN(c3c(Cl)cc(Cl)cc3Cl)C(=O)C2Sc2cc(C(C)(C)CC(C)(C)C)ccc2OCCCC)c(Cl)c1 (stereo not shown) [Coupler B4, reference compound]
Gamma [2, 8]: 4.1

Structure (SMILES): CCCCCCCCCCCCS(=O)(=O)c1ccc(NC2=NN(c3c(Cl)cc(Cl)cc3Cl)C(=O)C2Sc2cc(C(C)(C)CC(C)(C)C)ccc2OCCCC)c(Cl)c1 (stereo not shown) [Coupler B5, reference compound]
Gamma [2, 8]: 4.2

Structure (SMILES): CCCCCCCCCCCCNS(=O)(=O)c1cc(Cl)c(N2N=C(Nc3ccc(Cl)cc3Cl)C(Sc3cc(C(C)(C)CC(C)(C)C)ccc3OCCCC)C2=O)c(Cl)c1 (stereo not shown) [Coupler B6, reference compound]
Gamma [2, 9]: 3.4

Structure (SMILES): CCCCCCCCCCCCS(=O)(=O)c1cc(Cl)c(N2N=C(Nc3ccc(Cl)cc3Cl)C(Sc3cc(C(C)(C)CC(C)(C)C)ccc3OCCCC)C2=O)c(Cl)c1 (stereo not shown) [Coupler B7, reference compound]
Gamma [2, 9]: 3.3

λmax(nm) (+-0.5) [1, 6]: 555.0 nm
λmax(nm) (+-0.5) [1, 8]: 553.0 nm
Structure (SMILES): CCC(C)(C)c1ccc(OCC(=O)Nc2cccc(C(=O)NC3=NN(c4c(Cl)cc(Cl)cc4Cl)C(=O)C3)c2)c(C(C)(C)CC)c1 [Coupler B8, reference compound]
Gamma [2, 6]: 2.3
Gamma [2, 8]: 2.0

λmax(nm) (+-0.5) [1, 6]: 551.5 nm
Structure (SMILES): CCCCCCCCCCCCNS(=O)(=O)c1ccc(NC2=NN(c3c(Cl)cc(S(=O)(=O)N4CCOCC4)cc3Cl)C(=O)C2Sc2ccccc2N(C)C(=O)CCCCCCCCCCC)c(Cl)c1 (stereo not shown) [Coupler M2]
Gamma [2, 6]: 3.9

λmax(nm) (+-0.5) [1, 6]: 551.0 nm
Structure (SMILES): CCCCCCCCCCCCNS(=O)(=O)c1ccc(NC2=NN(c3c(Cl)cc(S(=O)(=O)N4CCOCC4)cc3Cl)C(=O)C2Sc2ccccc2N(CCCCCCCCCCCC)C(=O)C(C)(C)C)c(Cl)c1 (stereo not shown) [Coupler M3]
Gamma [2, 6]: 4.4

Structure (SMILES): CCCCCCCCCCCCNS(=O)(=O)c1ccc(NC2=NN(c3c(Cl)cc(C#N)cc3Cl)C(=O)C2Sc2cc(C(C)(C)CC(C)(C)C)ccc2OCCCC)c(Cl)c1 (stereo not shown) [Coupler M5]
Gamma [2, 7]: 3.8

λmax(nm) (+-0.5) [1, 8]: 548.5 nm
Structure (SMILES): CCCCCCCCCCCCOC(=O)c1ccc(NC2=NN(c3c(Cl)cc(S(=O)(=O)N4CCOCC4)cc3Cl)C(=O)C2Sc2cc(C(C)(C)CC(C)(C)C)ccc2OCCCC)c(Cl)c1 (stereo not shown) [Coupler M6]
Gamma [2, 8]: 3.7

λmax(nm) (+-0.5) [1, 8]: 548.5 nm
Structure (SMILES): CCCCCCCCCCCCOC(=O)c1ccc(NC2=NN(c3c(Cl)cc(S(C)(=O)=O)cc3Cl)C(=O)C2Sc2cc(C(C)(C)CC(C)(C)C)ccc2OCCCC)c(Cl)c1 (stereo not shown) [Coupler M7]
Gamma [2, 8]: 3.1

λmax(nm) (+-0.5) [1, 8]: 548.5 nm
Structure (SMILES): CCCCCCCCCCCCOC(=O)c1ccc(NC2=NN(c3c(Cl)cc(C#N)cc3Cl)C(=O)C2Sc2cc(C(C)(C)CC(C)(C)C)ccc2OCCCC)c(Cl)c1 (stereo not shown) [Coupler M8]
Gamma [2, 8]: 4.1

λmax(nm) (+-0.5) [1, 8]: 551.0 nm
Structure (SMILES): CCCCCCCCCCCCS(=O)(=O)c1ccc(NC2=NN(c3c(Cl)cc(S(=O)(=O)N4CCOCC4)cc3Cl)C(=O)C2Sc2cc(C(C)(C)CC(C)(C)C)ccc2OCCCC)c(Cl)c1 (stereo not shown) [Coupler M9]
Gamma [2, 8]: 3.2

λmax(nm) (+-0.5) [1, 8]: 551.0 nm
Structure (SMILES): CCCCCCCCCCCCS(=O)(=O)c1ccc(NC2=NN(c3c(Cl)cc(S(C)(=O)=O)cc3Cl)C(=O)C2Sc2cc(C(C)(C)CC(C)(C)C)ccc2OCCCC)c(Cl)c1 (stereo not shown) [Coupler M10]
Gamma [2, 8]: 3.2

λmax(nm) (+-0.5) [1, 9]: 549.5 nm
Structure (SMILES): CCCCCCCCCCCCNS(=O)(=O)c1cc(Cl)c(N2N=C(Nc3ccc(S(=O)(=O)N4CCOCC4)cc3Cl)C(Sc3cc(C(C)(C)CC(C)(C)C)ccc3OCCCC)C2=O)c(Cl)c1 (stereo not shown) [Coupler M12]
Gamma [2, 9]: 3.1

λmax(nm) (+-0.5) [1, 9]: 549.5 nm
Structure (SMILES): CCCCCCCCCCCCNS(=O)(=O)c1cc(Cl)c(N2N=C(Nc3ccc(S(C)(=O)=O)cc3Cl)C(Sc3cc(C(C)(C)CC(C)(C)C)ccc3OCCCC)C2=O)c(Cl)c1 (stereo not shown) [Coupler M13]
Gamma [2, 9]: 3.9

λmax(nm) (+-0.5) [1, 9]: 550.5 nm
Structure (SMILES): CCCCCCCCCCCCNS(=O)(=O)c1cc(Cl)c(N2N=C(Nc3ccc(C#N)cc3Cl)C(Sc3cc(C(C)(C)CC(C)(C)C)ccc3OCCCC)C2=O)c(Cl)c1 (stereo not shown) [Coupler M14]
Gamma [2, 9]: 3.1

λmax(nm) (+-0.5) [1, 9]: 551.0 nm
Structure (SMILES): CCCCCCCCCCCCS(=O)(=O)c1cc(Cl)c(N2N=C(Nc3ccc(S(=O)(=O)N4CCOCC4)cc3Cl)C(Sc3cc(C(C)(C)CC(C)(C)C)ccc3OCCCC)C2=O)c(Cl)c1 (stereo not shown) [Coupler M15]
Gamma [2, 9]: 3.4

λmax(nm) (+-0.5) [1, 9]: 550.5 nm
Structure (SMILES): CCCCCCCCCCCCS(=O)(=O)c1cc(Cl)c(N2N=C(Nc3ccc(S(C)(=O)=O)cc3Cl)C(Sc3cc(C(C)(C)CC(C)(C)C)ccc3OCCCC)C2=O)c(Cl)c1 (stereo not shown) [Coupler M16]
Gamma [2, 9]: 3.2

λmax(nm) (+-0.5) [1, 9]: 550.5 nm
Structure (SMILES): CCCCCCCCCCCCS(=O)(=O)c1cc(Cl)c(N2N=C(Nc3ccc(C#N)cc3Cl)C(Sc3cc(C(C)(C)CC(C)(C)C)ccc3OCCCC)C2=O)c(Cl)c1 (stereo not shown) [Coupler M17]
Gamma [2, 9]: 3.5
